Test results as given in patent publication US20170327797A1, “R[…] CCCDNA, THE METHOD TO GENERATE THEREOF AND THE USE THEREOF” (priority 2015, published 2017).

How the values were obtained:
[1] = tested on: HBV (HBVcircle transfected HepG2 cells); experiment: In vitro anti-HBV drug evaluation in HBVcircle transfected HepG2 cells; type: cell-based; conditions: treated 6 days
Experimental: X-[…] HP DNA transfection reagent (from Roche) was used for transfection. One day before transfection, cells were trypsinized and seeded onto plates, Cells were seeded at 0.8×10^5/well in 24 well plates for HepG2 and proliferation HepaRG cell line, and 3×10^5/well in 24 well plates for differentiated HepaRG cell line.
(§1) HBeAg or HBsAg were measured by using the HBeAg or HBsAg ELISA kit (from Autobio) according to the manufacturer's direction.
The transfected HepG2 cells were lysed using lysis buffer (50 mM Tris-HCl, pH8.0, 100 mM NaCl, 1% CA-630, 1×EDTA free proteinase inhibitor). After incubation at 4° C. for 1 h with agitation, cytoplasmic lysate was cleared by centrifugation. The lysate was separated by electrophoresis in 1.5% agarose gel and then transferred onto PVDF membrane (for Western blotting) or a positively charged nylon membrane (for southern blotting), for detecting the capsid protein and encapsidated DNA respectively.
After SDS-PAGE, gels were transferred to PVDF membrane by using iblot system (from Invitrogen). […]
The sample was loaded to an electrophoresis of 1.5% agarose gel in 1×TAE buffer for 2-3 hours. […] After incubating blots with an alkaline-phosphatase-conjugated anti-DIG antibody, hybridization signals were detected in a standard chemiluminescence reaction.
Next, the feasibility of evaluating anti-HBV drugs using HBVcircle system in cell culture models was assessed. […]

[2] = tested on: HBV (HBVcircle injected C3H/HeN mice); experiment: In vivo anti-HBV drug evaluation in HBVcircle HDI mice; conditions: 10 μg HBVcircle, 0.03mg/kg QD orally for 29 days from day 23
Experimental: The animals were grouped based on Day-1 body weights. On Day 0, all animals were subjected to hydrodynamic injection through tail vein within 5 seconds with 2.5-20 μg DNA in a volume (mL) of saline equivalent to 8% of body weight (g) (Liu, et al., 1999, Gene Ther, 6: 1258-66, Zhang, et al., 1999, Hum Gene Ther, 10: 1735-7). After animal exclusion due to technical failure of hydrodynamic injection or low HBV marker expression on Day 1 or Day 3, the remaining mice were maintained for long term evaluation. Blood samples were collected for serum preparation on indicated time post HDI injection.
For compound treatment, on Day 20 post HDI (DAY-3 of compound treatment), C3H/HeN mice were divided into 4 groups based on serum HBsAg levels and body weights on DAY 20. ETV and R848 were diluted in saline from stock solutions on treatment days. Vehicle was RC591. All test compounds were given orally with indicated dose and frequency.
as §1
HBV DNA in cell culture supernatant or mouse serum was extracted using MagNA Pure 96 System MagNA Pure 96 System (from Roche). HBV DNA levels were determined via RT-PCR. The primer and probe sequences are shown below. […]

Compound: C=C1[C@H](CO)[C@@H](O)C[C@@H]1n1cnc2c(=O)[nH]c(N)nc21 [ETV, Entecavir]
- HBV DNA replication (encapsidated HBV DNA, southern blot) [1]: efficiently blocked HBV DNA replication in a dose dependent manner
- other viral proteins expression [1]: did not affect other viral proteins expression
- HBV DNA in serum [2]: efficiently reduced HBV DNA in serum to undetectable level
